According to BindingDB's records for doi:10.1021/jm00072a019 (J. Uriach & Cía., 1993):
pIC50: −log10 of the molar value.

Experiment: Inhibition of PAF-induced platelet aggregation

Row | Structure (SMILES) | pIC50
1 | C#CC(c1cccnc1C)N1CCN(C(=O)CNC(c2ccccc2)c2ccccc2)CC1 (stereo not drawn) [2-(Benzhydryl-amino)-1-{4-[1-(2-methyl-pyridin-3-yl)-prop-2-ynyl]-piperazin-1-yl}-ethanone] | 6.07
2 | CNC(=O)C(CC(=O)N1CCN(C(C#N)c2cccnc2C)CC1)c1ccccc1 (stereo not drawn) [4-{4-[Cyano-(2-methyl-pyridin-3-yl)-methyl]-piperazin-1-yl}-N-methyl-4-oxo-2-phenyl-butyramide] | 4.82
3 | Cc1ncccc1C(C#N)N1CCN(C(=O)CC(NCc2cccnc2)c2ccccc2)CC1 (stereo not drawn) [(2-Methyl-pyridin-3-yl)-(4-{3-phenyl-3-[(pyridin-3-ylmethyl)-amino]-propionyl}-piperazin-1-yl)-acetonitrile] | 7.12
4 | C#CCNC(CC(=O)N1CCN(C(C#N)c2cccnc2C)CC1)c1ccccc1 (stereo not drawn) [(2-Methyl-pyridin-3-yl)-[4-(3-phenyl-3-prop-2-ynylamino-propionyl)-piperazin-1-yl]-acetonitrile] | 6.57
5 | Cc1ncccc1C(C#N)N1CCN(C(=O)CC(c2ccccc2)N2CCOC2=O)CC1 (stereo not drawn) [(2-Methyl-pyridin-3-yl)-{4-[3-(2-oxo-oxazolidin-3-yl)-3-phenyl-propionyl]-piperazin-1-yl}-acetonitrile] | 7.20
6 | Cc1ncccc1C(C#N)N1CCN(C(=O)CC(c2ccccc2)N2CCCC2=O)CC1 (stereo not drawn) [(2-Methyl-pyridin-3-yl)-{4-[3-(2-oxo-pyrrolidin-1-yl)-3-phenyl-propionyl]-piperazin-1-yl}-acetonitrile] | 7.52
7 | Cc1ncccc1C(C#N)N1CCN(C(=O)CC(NC(=O)OCC(C)C)c2ccccc2)CC1 (stereo not drawn) [(3-{4-[Cyano-(2-methyl-pyridin-3-yl)-methyl]-piperazin-1-yl}-3-oxo-1-phenyl-propyl)-carbamic acid isobutyl ester] | 7.44
8 | COC(=O)NC(CC(=O)N1CCN(C(C#N)c2cccnc2C)CC1)c1ccccc1 (stereo not drawn) [(3-{4-[Cyano-(2-methyl-pyridin-3-yl)-methyl]-piperazin-1-yl}-3-oxo-1-phenyl-propyl)-carbamic acid methyl ester] | 7.39
9 | Cc1ncccc1C(C#N)N1CCN(C(=O)CC(NC(=O)Oc2ccccc2)c2ccccc2)CC1 (stereo not drawn) [(3-{4-[Cyano-(2-methyl-pyridin-3-yl)-methyl]-piperazin-1-yl}-3-oxo-1-phenyl-propyl)-carbamic acid phenyl ester] | 7.80
10 | Cc1ncccc1C(C#N)N1CCN(C(=O)CC(NC(=O)OC(C)(C)C)c2ccccc2)CC1 (stereo not drawn) [(3-{4-[Cyano-(2-methyl-pyridin-3-yl)-methyl]-piperazin-1-yl}-3-oxo-1-phenyl-propyl)-carbamic acid tert-butyl ester] | 7.25
11 | Cc1ncccc1C(C#N)N1CCN(C(=O)CC(NC(N)=O)c2ccccc2)CC1 (stereo not drawn) [(3-{4-[Cyano-(2-methyl-pyridin-3-yl)-methyl]-piperazin-1-yl}-3-oxo-1-phenyl-propyl)-urea] | 6.33
12 | COC(=O)N(Cc1ccccc1)C(CC(=O)N1CCN(C(C#N)c2cccnc2C)CC1)c1ccccc1 (stereo not drawn) [Benzyl-(3-{4-[cyano-(2-methyl-pyridin-3-yl)-methyl]-piperazin-1-yl}-3-oxo-1-phenyl-propyl)-carbamic acid methyl ester] | 7.17
13 | CC(=O)NC(CC(=O)N1CCN(C(C#N)c2cccnc2C)CC1)c1ccccc1 (stereo not drawn) [N-(3-{4-[Cyano-(2-methyl-pyridin-3-yl)-methyl]-piperazin-1-yl}-3-oxo-1-phenyl-propyl)-acetamide] | 7.51
14 | Cc1ncccc1C(C#N)N1CCN(C(=O)CN(C=O)C(c2ccccc2)c2ccccc2)CC1 (stereo not drawn) [N-Benzhydryl-N-(2-{4-[cyano-(2-methyl-pyridin-3-yl)-methyl]-piperazin-1-yl}-2-oxo-ethyl)-formamide] | 7.52
15 | Cc1ncccc1C(C#N)N1CCN(C(=O)CC(NC(=O)N2CCCC2)c2ccccc2)CC1 (stereo not drawn) [Pyrrolidine-1-carboxylic acid (3-{4-[cyano-(2-methyl-pyridin-3-yl)-methyl]-piperazin-1-yl}-3-oxo-1-phenyl-propyl)-amide] | 7.19
16 | Cc1ncccc1C(C#N)N1CCN(C(=O)COC(c2ccccc2)c2ccccc2)CC1 (stereo not drawn) [[4-(2-Benzhydryloxy-acetyl)-piperazin-1-yl]-(2-methyl-pyridin-3-yl)-acetonitrile] | 7.38
17 | Cc1ncccc1C(C#N)N1CCN(C(=O)CSC(c2ccccc2)c2ccccc2)CC1 (stereo not drawn) [[4-(2-Benzhydrylsulfanyl-acetyl)-piperazin-1-yl]-(2-methyl-pyridin-3-yl)-acetonitrile] | 7.10
18 | Cc1ncccc1C(C#N)N1CCN(C(=O)CNC(c2ccc(F)cc2)c2ccc(F)cc2)CC1 (stereo not drawn) [[4-(2-{[Bis-(4-fluoro-phenyl)-methyl]-amino}-acetyl)-piperazin-1-yl]-(2-methyl-pyridin-3-yl)-acetonitrile] | 6.82

The remaining compounds from weak to strong by pIC50, led by results:

Row | pIC50 | Structure (SMILES)
19 | 7.55 | Cc1ncccc1C(C#N)N1CCN(C(=O)CC(Nc2ccccc2)c2ccccc2)CC1 (stereo not drawn) [(2-Methyl-pyridin-3-yl)-[4-(3-phenyl-3-phenylamino-propionyl)-piperazin-1-yl]-acetonitrile]
20 | 7.59 | Cc1ncccc1C(C#N)N1CCN(C(=O)C=C(c2ccccc2)c2ccccc2)CC1 (stereo not drawn) [[4-(3,3-Diphenyl-acryloyl)-piperazin-1-yl]-(2-methyl-pyridin-3-yl)-acetonitrile]
21 | 7.66 | Cc1ncccc1C(C#N)N1CCN(C(=O)CC(NC(=O)OCc2ccccc2)c2ccccc2)CC1 (stereo not drawn) [(3-{4-[Cyano-(2-methyl-pyridin-3-yl)-methyl]-piperazin-1-yl}-3-oxo-1-phenyl-propyl)-carbamic acid benzyl ester]
22 | 7.70 | COC(=O)N(C)C(CC(=O)N1CCN(C(C#N)c2cccnc2C)CC1)c1ccccc1 (stereo not drawn) [(3-{4-[Cyano-(2-methyl-pyridin-3-yl)-methyl]-piperazin-1-yl}-3-oxo-1-phenyl-propyl)-methyl-carbamic acid methyl ester]
23 | 7.70 | CC(=O)N(CC(=O)N1CCN(C(C#N)c2cccnc2C)CC1)C(c1ccccc1)c1ccccc1 (stereo not drawn) [N-Benzhydryl-N-(2-{4-[cyano-(2-methyl-pyridin-3-yl)-methyl]-piperazin-1-yl}-2-oxo-ethyl)-acetamide]
24 | 7.74 | Cc1ncccc1C(C#N)N1CCN(C(=O)CC(c2ccccc2)c2ccccc2)CC1 (stereo not drawn) [[4-(3,3-Diphenyl-propionyl)-piperazin-1-yl]-(2-methyl-pyridin-3-yl)-acetonitrile]
25 | 7.85 | CCOC(=O)NC(CC(=O)N1CCN(C(C#N)c2cccnc2C)CC1)c1ccccc1 (stereo not drawn) [(3-{4-[Cyano-(2-methyl-pyridin-3-yl)-methyl]-piperazin-1-yl}-3-oxo-1-phenyl-propyl)-carbamic acid ethyl ester]
26 | 7.92 | COC(=O)NC(CC(=O)N1CCN(C(C#N)c2cccnc2C)CC1)c1ccc(C(F)(F)F)cc1 (stereo not drawn) [[3-{4-[Cyano-(2-methyl-pyridin-3-yl)-methyl]-piperazin-1-yl}-3-oxo-1-(4-trifluoromethyl-phenyl)-propyl]-carbamic acid methyl ester]
27 | 8.04 | Cc1ncccc1C(C#N)N1CCN(C(=O)CC(NC(=O)c2ccccc2)c2ccccc2)CC1 (stereo not drawn) [N-(3-{4-[Cyano-(2-methyl-pyridin-3-yl)-methyl]-piperazin-1-yl}-3-oxo-1-phenyl-propyl)-benzamide]
28 | 8.05 | Cc1ncccc1C(C#N)N1CCN(C(=O)CC(NC(=O)c2cccnc2)c2ccccc2)CC1 (stereo not drawn) [N-(3-{4-[Cyano-(2-methyl-pyridin-3-yl)-methyl]-piperazin-1-yl}-3-oxo-1-phenyl-propyl)-nicotinamide]
